19 compounds from ChEMBL document CHEMBL1140532, “Omega-alkoxy analogues of SAHA (vorinostat) as inhibitors of HDAC: a study of chain-length and stereochemical dependence” (Bioorg Med Chem Lett, 2007) can be followed below.

Experiment [1] has as its target Histone deacetylase 2 (Homo sapiens, UniProt Q92769). Put plainly: Inhibition of HDAC2 in HeLa cell lysates.
Experiment [2] relates to NB-4. Put plainly: Growth inhibition of human NB4 cells by SRB assay. The format is functional, cell-based. (In general: Sulforhodamine B stains cellular protein and so reports cell mass.)
In experiment [3] the test system is HCT-116. Nature of the experiment: Growth inhibition of human HCT116 cells by SRB assay. In kind it is functional, cell-based.
Experiment [4] deals with NCI-H460. Nature of the experiment: Growth inhibition of human H460 cells by SRB assay. The format is functional, cell-based.

By IC50 is commonly meant the midpoint of a concentration-inhibition curve. Higher therefore signals a need for much substance.

Chain of Histone deacetylase 2 (Q92769 whole entry): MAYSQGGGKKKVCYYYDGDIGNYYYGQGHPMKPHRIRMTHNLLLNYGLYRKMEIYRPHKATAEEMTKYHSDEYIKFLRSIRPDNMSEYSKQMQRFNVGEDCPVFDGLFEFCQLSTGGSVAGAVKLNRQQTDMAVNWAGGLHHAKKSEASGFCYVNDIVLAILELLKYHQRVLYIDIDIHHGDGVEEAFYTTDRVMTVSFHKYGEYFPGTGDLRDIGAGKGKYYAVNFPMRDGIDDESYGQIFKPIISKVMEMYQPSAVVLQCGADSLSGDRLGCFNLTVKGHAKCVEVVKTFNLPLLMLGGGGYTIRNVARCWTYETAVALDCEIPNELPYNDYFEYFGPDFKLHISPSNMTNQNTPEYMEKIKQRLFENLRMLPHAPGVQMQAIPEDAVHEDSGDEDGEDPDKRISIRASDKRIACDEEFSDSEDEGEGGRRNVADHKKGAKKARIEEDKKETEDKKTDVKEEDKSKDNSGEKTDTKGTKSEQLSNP

Turning to `COC(CCCCCC(=O)NO)C(=O)Nc1ccccc1` (stereo not given), the IC50 came to 0.5 µM in experiment [1], 0.52 µM in experiment [2], 0.88 µM in experiment [3] and 1.2 µM in experiment [4].

On to `COc1cccc(COC(CCCCCC(=O)NO)C(=O)Nc2ccccc2)c1` (stereo not given), for which the IC50 in experiment [1] is no less than 0.05 µM; in experiment [2] it was 0.16 µM; in experiment [3] it was 0.63 µM; in experiment [4], 0.59 µM.

`O=C(CCCCCC(OCc1ccc(Br)cc1)C(=O)Nc1ccccc1)NO` (stereo not given): the IC50 in experiment [1] was no less than 0.05 µM; in experiment [2] it was 0.06 µM; in experiment [3], 0.28 µM; in experiment [4] it was 0.49 µM.

Regarding `C=CCOC(CCCCCC(=O)NO)C(=O)Nc1ccccc1` (stereo not given), the IC50 in experiment [1] was found to be 0.5 µM; in experiment [2], 0.45 µM; in experiment [3], 0.99 µM; in experiment [4], 1.79 µM.

In the case of `COc1ccc(CO[C@H](CCCCCC(=O)NO)C(=O)Nc2ccccc2)cc1`, the 50% inhibitory concentration (IC50) was no less than 0.05 µM in experiment [1], 0.07 µM in experiment [2], 0.39 µM in experiment [3] and 0.5 µM in experiment [4].

Turning to `COc1ccc(COC(CCCCCC(=O)NO)C(=O)Nc2ccc(OC)cc2)cc1` (stereo not given), the IC50 amounted to 0.5 µM in experiment [1], 0.15 µM in experiment [2], 0.34 µM in experiment [3] and 0.3 µM in experiment [4].

`COc1ccc(COC(CCCCCC(=O)NO)C(=O)Nc2ccccc2)cc1` (stereo not given): the half-maximal inhibitory concentration (IC50) in experiment [1] was no less than 0.05 µM; in experiment [2] it was 0.12 µM; in experiment [3] it was 0.22 µM; in experiment [4], 0.52 µM.

With `COc1cc(COC(CCCCCC(=O)NO)C(=O)Nc2ccccc2)cc(OC)c1` (stereo not given), the IC50 in experiment [1] is no less than 0.05 µM; in experiment [2] it was 0.05 µM; in experiment [3] it was 0.3 µM; in experiment [4], 0.45 µM.

Turning to `O=C(CCCCCC(Oc1cccc(Oc2ccccc2)c1)C(=O)Nc1ccccc1)NO` (stereo not given), the half-inhibitory concentration (IC50) was found to be 0.23 µM in experiment [2], 0.67 µM in experiment [3] and 0.68 µM in experiment [4].

Take `COC(CCCCC(=O)NO)C(=O)Nc1ccccc1` (stereo not given): the 50% inhibitory concentration (IC50) worked out at 0.5 µM in experiment [1], 3.5 µM in experiment [2], 5 µM in experiment [3] and 5.7 µM in experiment [4].

As for `CCCOC(CCCCC(=O)NO)C(=O)Nc1ccccc1` (stereo not given), the IC50 in experiment [1] is 0.5 µM; in experiment [2], 4.1 µM; in experiment [3] it was 8.5 µM; in experiment [4], 10.4 µM.

For `O=C(CCCCCC(OCc1ccc(C(F)(F)F)cc1)C(=O)Nc1ccccc1)NO` (stereo not given), the IC50 is no less than 0.05 µM in experiment [1], 0.17 µM in experiment [2], 0.43 µM in experiment [3] and 0.48 µM in experiment [4].

Take `COc1ccc(CO[C@@H](CCCCCC(=O)NO)C(=O)Nc2ccccc2)cc1`: the half-inhibitory concentration (IC50) in experiment [1] is no less than 0.05 µM; in experiment [2], 0.11 µM; in experiment [3], 0.25 µM; in experiment [4], 0.45 µM.

With `COc1cccc(COC(CCCCCC(=O)NO)C(=O)N(Cc2cccc(OC)c2)c2ccccc2)c1` (stereo not given), the half-maximal inhibitory concentration (IC50) in experiment [1] worked out at 0.5 µM; in experiment [2], 4 µM; in experiment [3], 7.5 µM; in experiment [4], 7.4 µM.

Take `O=C(CCCCCC(O)C(=O)Nc1ccccc1)NO` (stereo not given): the IC50 came to 0.5 µM in experiment [1], 0.34 µM in experiment [2], 1.09 µM in experiment [3] and 0.46 µM in experiment [4].

For `O=C(CCCCC(OCc1ccccc1)C(=O)Nc1ccccc1)NO` (stereo not given), the IC50 in experiment [1] was 0.5 µM; in experiment [2] it was greater than 5 µM; in experiment [3] it was 2.4 µM; in experiment [4], 5.5 µM.

`Cc1ccc(COC(CCCCCC(=O)NO)C(=O)Nc2ccccc2)cc1` (stereo not given): the IC50 is no less than 0.05 µM in experiment [1], 0.12 µM in experiment [2], 0.27 µM in experiment [3] and 0.59 µM in experiment [4].

With `C=CCOC(CCCCCCC(=O)NO)C(=O)Nc1ccccc1` (stereo not given), the 50% inhibitory concentration (IC50) in experiment [1] is no less than 0.05 µM; in experiment [2], 0.62 µM; in experiment [3], 0.95 µM; in experiment [4], 1.8 µM.

Regarding `COc1ccc(NC(=O)C(CCCCCC(=O)NO)OCc2ccccc2)cc1` (stereo not given), the IC50 in experiment [1] was 0.5 µM; in experiment [2], 0.25 µM; in experiment [3] it was 0.5 µM; in experiment [4], 1 µM.
